# Columns and labels:
# Type in all cases: biochemical
# RIPK2 = RIPK2 (Homo sapiens (Human), UniProt O43353); assay: In vitro RIPK2 inhibition; settings: for remaining activity at 1 µM: read-out: % RIPK2 Remaining activity vs DMSO (1 μM, 3 h); for remaining activity at 10 µM: read-out: % RIPK2 Remaining activity vs DMSO (10 μM, 3 h)
# JAK3 = JAK3 (Homo sapiens (Human), UniProt P52333); assay: HTRF KinEASE-TK kinase assay, JAK3; settings: for remaining activity at 1 µM: read-out: % JAK3 Remaining activity vs DMSO (1 μM, 3 h); for remaining activity at 10 µM: read-out: % JAK3 Remaining activity vs DMSO (10 μM, 3 h)
# Experimental: (§1) Kinase activity was monitored using a HTRF® KinEASE-TK kit from Cisbio (62TK0PEC). […] JAK-3 was purchased from Promega. 0.0133 ng/ul JAK3 (0.21 nM) was preincubated in the absence or presence of inhibitor at room temperature for 3 hours. Reaction with substrate was then initiated by adding biotinylated substrate and ATP. […] The reaction was terminated by adding 31.25 nM SA-XL665 and 100 fold diluted europium labelled antibody (Eu-Ab), diluted in 1× detection buffer that contained EDTA. After 60 min of incubation, the fluorescence emission was measured at 620 nm and 665 nm. The ratio of Em 665 nm to Em 620 nm was proportional to the amount of substrate phosphorylated by the kinase.
# EGFR = EGFR (Homo sapiens (Human), UniProt P00533); assay: HTRF KinEASE-TK kinase assay, EGFR; settings: 3 h preincubation; for remaining activity at 1 µM: 1 μM compound, read-out: % EGFR Remaining activity vs DMSO (1 μM, 3 h); for remaining activity at 10 µM: 10 μM compound, read-out: % EGFR Remaining activity vs DMSO (10 μM, 3 h)
# Experimental: Kinase activity was monitored using a HTRF® KinEASE-TK kit from Cisbio (62TK0PEC). The buffer used was 1× kinase buffer supplemented with 2 mM MnCl2, 5 mM MgCl2, 1 mM TCEP and 100× diluted Supplementary Enzyme Buffer. EGFR was purchased from Promega. […] Reaction with substrate was then initiated by adding biotinylated substrate and ATP. […] After 60 min of incubation, the fluorescence emission was measured at 620 nm and 665 nm. The ratio of Em 665 nm to Em 620 nm was proportional to the amount of substrate phosphorylated by the kinase.
# For initial screening, enzymes were pre incubated with compounds at 2 different concentrations (1 and 10 uM final) and 0.5% DMSO.
# BMX = BMX (Homo sapiens (Human), UniProt P51813); assay: HTRF KinEASE-TK kinase assay, BMX; settings: for remaining activity at 1 µM: 1 uM compound; for remaining activity at 1 µM / remaining activity at 10 µM: 3 h preincubation; for remaining activity at 10 µM: 10 uM compound
# Experimental: as §1, with “BMX” for “JAK-3”, “0.333” for “0.0133”, “BMX (3.03” for “JAK3 (0.21”, “The reaction” for “Reaction”, “Reaction” for “The reaction”
# FGFR4 = FGFR4 (Homo sapiens (Human), UniProt P22455); assay: HTRF KinEASE-TK kinase assay, FGFR4; settings: for remaining activity at 1 µM: read-out: % FGFR4 Remaining activity vs DMSO (1 μM, 3 h); for remaining activity at 10 µM: read-out: % FGFR4 Remaining activity vs DMSO (10 μM, 3 h); for IC50: dose response
# Experimental: as §1, with “FGFR-4” for “JAK-3”, “0.333” for “0.0133”, “FGFR4 (5.12” for “JAK3 (0.21”
# BTK = BTK (Homo sapiens (Human), UniProt Q06187); assay: HTRF KinEASE-TK kinase assay, BTK; settings: 3 h preincubation; for remaining activity at 1 µM: 1 μM compound, read-out: % BTK Remaining activity vs DMSO (1 μM, 3 h); for remaining activity at 10 µM: 10 μM compound, read-out: % BTK Remaining activity vs DMSO (10 μM, 3 h)
# Experimental: Kinase activity was monitored using a HTRF® KinEASE-TK kit from Cisbio (62TK0PEC). For BTK, the 1× kinase buffer was supplemented with 10 mM MnCl2, 5 mM MgCl2, 1 uM ATPγS, 1 mM TCEP and 100 fold diluted Supplementary Enzyme Buffer. BTK was purchased from Promega. […] Reaction with substrate was then initiated by adding biotinylated substrate and ATP and the reaction was allowed to proceed for 45 min. […] After 60 min of incubation, the fluorescence emission was measured at 620 nm and 665 nm. The ratio of Em 665 nm to Em 620 nm was proportional to the amount of substrate phosphorylated by the kinase.
# Chain of BMX (P51813 whole entry): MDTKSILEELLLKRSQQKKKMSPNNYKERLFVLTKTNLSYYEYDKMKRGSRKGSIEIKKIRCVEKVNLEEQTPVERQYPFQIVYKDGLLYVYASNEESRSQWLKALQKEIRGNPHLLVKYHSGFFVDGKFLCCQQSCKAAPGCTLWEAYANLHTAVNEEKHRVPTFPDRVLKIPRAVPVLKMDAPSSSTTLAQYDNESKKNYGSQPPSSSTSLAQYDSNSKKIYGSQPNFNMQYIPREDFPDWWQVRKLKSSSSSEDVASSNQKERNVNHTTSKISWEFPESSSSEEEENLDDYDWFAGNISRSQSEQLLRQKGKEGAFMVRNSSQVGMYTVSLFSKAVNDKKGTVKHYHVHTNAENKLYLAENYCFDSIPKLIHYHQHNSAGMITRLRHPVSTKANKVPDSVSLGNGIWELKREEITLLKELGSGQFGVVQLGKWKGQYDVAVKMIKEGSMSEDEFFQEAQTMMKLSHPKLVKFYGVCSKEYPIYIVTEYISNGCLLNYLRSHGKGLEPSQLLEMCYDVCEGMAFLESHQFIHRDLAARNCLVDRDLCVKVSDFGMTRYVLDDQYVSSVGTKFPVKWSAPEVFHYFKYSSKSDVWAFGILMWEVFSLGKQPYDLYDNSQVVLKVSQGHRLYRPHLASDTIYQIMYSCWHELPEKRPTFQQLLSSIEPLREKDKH
# Chain of RIPK2 (O43353 whole entry, species assumed): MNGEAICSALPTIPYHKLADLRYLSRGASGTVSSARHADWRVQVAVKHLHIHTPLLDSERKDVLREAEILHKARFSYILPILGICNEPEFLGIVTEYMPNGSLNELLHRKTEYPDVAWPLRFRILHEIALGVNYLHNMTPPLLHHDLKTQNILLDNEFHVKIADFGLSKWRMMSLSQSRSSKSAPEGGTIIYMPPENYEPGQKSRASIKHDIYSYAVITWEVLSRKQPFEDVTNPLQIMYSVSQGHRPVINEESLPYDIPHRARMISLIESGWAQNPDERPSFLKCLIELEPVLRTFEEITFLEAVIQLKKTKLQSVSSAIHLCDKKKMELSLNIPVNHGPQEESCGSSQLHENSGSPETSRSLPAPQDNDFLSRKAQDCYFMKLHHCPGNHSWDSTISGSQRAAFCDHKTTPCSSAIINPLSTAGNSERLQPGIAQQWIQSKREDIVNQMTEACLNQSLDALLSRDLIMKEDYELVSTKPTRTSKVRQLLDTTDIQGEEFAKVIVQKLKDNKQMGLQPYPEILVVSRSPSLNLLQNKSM
# Chain of EGFR (P00533 25-1210): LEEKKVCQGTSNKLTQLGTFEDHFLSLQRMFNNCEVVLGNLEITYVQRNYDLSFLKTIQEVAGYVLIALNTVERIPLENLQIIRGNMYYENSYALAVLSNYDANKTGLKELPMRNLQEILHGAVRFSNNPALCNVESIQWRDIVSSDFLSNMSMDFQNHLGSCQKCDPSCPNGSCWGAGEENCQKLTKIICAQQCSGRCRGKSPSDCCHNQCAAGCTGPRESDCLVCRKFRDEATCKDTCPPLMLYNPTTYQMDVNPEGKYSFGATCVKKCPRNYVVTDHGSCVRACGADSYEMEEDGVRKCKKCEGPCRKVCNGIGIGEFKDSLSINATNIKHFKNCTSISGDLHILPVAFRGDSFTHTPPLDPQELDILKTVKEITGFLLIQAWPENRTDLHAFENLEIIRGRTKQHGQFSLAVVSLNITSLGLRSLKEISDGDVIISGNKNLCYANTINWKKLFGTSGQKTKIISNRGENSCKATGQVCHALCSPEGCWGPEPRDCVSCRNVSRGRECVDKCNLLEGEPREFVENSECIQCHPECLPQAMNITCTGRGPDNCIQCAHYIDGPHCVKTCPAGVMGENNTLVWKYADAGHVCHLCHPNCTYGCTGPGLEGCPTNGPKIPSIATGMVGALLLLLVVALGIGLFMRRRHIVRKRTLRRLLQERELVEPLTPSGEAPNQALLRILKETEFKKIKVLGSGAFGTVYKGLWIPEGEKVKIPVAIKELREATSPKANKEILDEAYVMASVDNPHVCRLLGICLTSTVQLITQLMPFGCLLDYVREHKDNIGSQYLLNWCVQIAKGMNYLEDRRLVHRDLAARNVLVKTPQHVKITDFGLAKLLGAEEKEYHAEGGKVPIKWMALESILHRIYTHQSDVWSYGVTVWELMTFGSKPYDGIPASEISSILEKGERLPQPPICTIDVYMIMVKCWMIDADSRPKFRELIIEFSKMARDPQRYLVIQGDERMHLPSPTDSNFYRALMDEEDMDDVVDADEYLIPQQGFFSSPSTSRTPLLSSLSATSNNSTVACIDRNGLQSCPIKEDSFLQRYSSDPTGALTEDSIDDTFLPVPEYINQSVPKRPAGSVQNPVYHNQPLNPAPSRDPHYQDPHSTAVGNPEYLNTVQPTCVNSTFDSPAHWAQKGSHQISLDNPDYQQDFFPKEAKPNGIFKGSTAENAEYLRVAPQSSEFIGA
# Chain of FGFR4 (P22455 22-802): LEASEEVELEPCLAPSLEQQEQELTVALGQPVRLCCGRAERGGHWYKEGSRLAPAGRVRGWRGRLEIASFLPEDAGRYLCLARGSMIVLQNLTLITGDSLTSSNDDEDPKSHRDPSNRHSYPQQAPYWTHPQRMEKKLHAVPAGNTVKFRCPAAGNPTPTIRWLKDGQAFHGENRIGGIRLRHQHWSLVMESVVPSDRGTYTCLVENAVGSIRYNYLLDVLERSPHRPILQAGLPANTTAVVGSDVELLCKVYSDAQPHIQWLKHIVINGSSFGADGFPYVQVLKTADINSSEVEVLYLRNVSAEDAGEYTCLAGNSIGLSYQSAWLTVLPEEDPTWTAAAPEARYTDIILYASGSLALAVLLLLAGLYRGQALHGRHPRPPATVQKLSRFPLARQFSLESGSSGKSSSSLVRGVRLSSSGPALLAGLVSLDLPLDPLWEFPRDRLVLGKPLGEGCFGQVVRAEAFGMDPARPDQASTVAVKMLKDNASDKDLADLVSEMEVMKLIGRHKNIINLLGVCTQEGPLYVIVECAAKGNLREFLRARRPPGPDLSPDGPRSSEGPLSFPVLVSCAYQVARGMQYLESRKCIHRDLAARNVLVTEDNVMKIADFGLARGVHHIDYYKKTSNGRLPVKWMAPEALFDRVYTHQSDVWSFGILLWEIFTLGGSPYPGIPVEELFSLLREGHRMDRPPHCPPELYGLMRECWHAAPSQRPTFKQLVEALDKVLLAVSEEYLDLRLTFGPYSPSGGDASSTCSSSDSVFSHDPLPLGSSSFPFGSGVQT
# Chain of JAK3 (P52333 781-1124): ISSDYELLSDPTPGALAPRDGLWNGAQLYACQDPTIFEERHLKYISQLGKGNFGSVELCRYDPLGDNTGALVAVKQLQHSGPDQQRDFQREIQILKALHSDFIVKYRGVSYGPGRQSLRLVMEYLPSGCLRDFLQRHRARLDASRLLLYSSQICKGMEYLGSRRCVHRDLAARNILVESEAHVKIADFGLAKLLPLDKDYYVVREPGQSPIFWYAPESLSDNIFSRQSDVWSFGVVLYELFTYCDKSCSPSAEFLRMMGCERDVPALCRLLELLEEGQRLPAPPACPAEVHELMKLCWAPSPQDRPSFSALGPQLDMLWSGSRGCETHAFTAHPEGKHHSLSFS
# Chain of BTK (Q06187 whole entry): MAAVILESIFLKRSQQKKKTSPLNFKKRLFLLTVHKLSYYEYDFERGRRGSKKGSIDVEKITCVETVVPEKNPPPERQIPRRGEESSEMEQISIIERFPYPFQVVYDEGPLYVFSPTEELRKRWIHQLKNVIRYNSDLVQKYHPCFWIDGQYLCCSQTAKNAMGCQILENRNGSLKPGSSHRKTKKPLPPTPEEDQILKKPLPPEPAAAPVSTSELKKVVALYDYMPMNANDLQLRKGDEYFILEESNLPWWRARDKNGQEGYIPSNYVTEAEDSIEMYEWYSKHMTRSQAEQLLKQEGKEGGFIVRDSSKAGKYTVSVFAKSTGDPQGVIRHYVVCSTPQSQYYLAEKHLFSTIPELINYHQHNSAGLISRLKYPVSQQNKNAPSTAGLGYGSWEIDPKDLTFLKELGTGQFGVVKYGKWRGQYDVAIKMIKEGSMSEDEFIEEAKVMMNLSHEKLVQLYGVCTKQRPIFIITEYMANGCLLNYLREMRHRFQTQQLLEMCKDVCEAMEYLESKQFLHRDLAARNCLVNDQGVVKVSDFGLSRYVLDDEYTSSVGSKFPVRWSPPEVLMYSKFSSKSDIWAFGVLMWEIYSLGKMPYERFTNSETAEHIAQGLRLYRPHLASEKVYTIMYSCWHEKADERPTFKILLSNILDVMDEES
Compound,remaining activity at 1 µM (RIPK2),remaining activity at 10 µM (RIPK2),remaining activity at 1 µM (JAK3),remaining activity at 10 µM (JAK3),remaining activity at 1 µM (EGFR),remaining activity at 10 µM (EGFR),remaining activity at 1 µM (BMX),remaining activity at 10 µM (BMX),remaining activity at 1 µM (FGFR4),remaining activity at 10 µM (FGFR4),remaining activity at 1 µM (BTK),remaining activity at 10 µM (BTK),"IC50 (EGFR; dose response, read-out: EGFR Inhibition IC50)",IC50 (FGFR4),"IC50 (BTK; dose response, read-out: BTK Inhibition IC50)",IC50 (BMX; dose response)
"CN(C)S(=O)(=O)c1c(F)c(F)c(F)c(F)c1C(=O)N1CCC[C@@H](n2nc(-c3ccc(Oc4ccccc4)cc3)c3c(N)ncnc32)C1 [Compound I-31, (R)-2-(3-(4-amino-3-(4-phenoxyphenyl)-1H-pyrazolo[3,4-d]pyrimidin-1-yl)piperidine-1-carbonyl)-3,4,5,6-tetrafluoro-N,N-dimethylbenzenesulfonamide]",50 to 90%,> 90%,> 90%,> 90%,> 90%,> 90%,< 50%,< 50%,50 to 90%,> 90%,,,,,,
"O=S(=O)(Nc1cc2c(Nc3ccc(F)c(Cl)c3)ncnc2cc1O[C@H]1CCOC1)c1c(F)c(F)c(F)c(F)c1C(F)(F)F [Compound I-1, (S)—N-(4-((3-chloro-4-fluorophenyl)amino)-7-((tetrahydrofuran-3-yl)oxy)quinazolin-6-yl)-2,3,4,5-tetrafluoro-6-(trifluoromethyl)benzenesulfonamide]",,,50 to 90%,< 50%,< 50%,< 50%,50 to 90%,50 to 90%,> 90%,> 90%,50 to 90%,< 50%,< 1 µM,,,
"COCCOc1ccc(Nc2ncc(F)c(Nc3cccc(NC(=O)c4c(F)c(F)c(F)c(F)c4[S@+](C)[O-])c3)n2)cc1 (racemic) [Compound I-62, 2,3,4,5-tetrafluoro-N-(3-((5-fluoro-2-((4-(2-methoxyethoxy)phenyl)amino)pyrimidin-4-yl)amino)phenyl)-6-(methylsulfinyl)benzamide]",,,,,,,,,,,,,,< 1 µM,< 1 µM,
"COCCOc1ccc(Nc2ncc(F)c(Nc3cccc(NS(=O)(=O)c4c(F)c(F)c(F)c(F)c4CF)c3)n2)cc1 [Compound I-58, 2,3,4,5-tetrafluoro-N-(3-((5-fluoro-2-((4-(2-methoxyethoxy)phenyl)amino)pyrimidin-4-yl)amino)phenyl)-6-(fluoromethyl)benzenesulfonamide]",,,> 90%,< 50%,> 90%,> 90%,< 50%,< 50%,< 50%,< 50%,< 50%,< 50%,,< 1 µM,,

# The remaining lines, values ahead:
remaining activity at 1 µM (RIPK2),remaining activity at 10 µM (RIPK2),remaining activity at 1 µM (JAK3),remaining activity at 10 µM (JAK3),remaining activity at 1 µM (EGFR),remaining activity at 10 µM (EGFR),remaining activity at 1 µM (BMX),remaining activity at 10 µM (BMX),remaining activity at 1 µM (FGFR4),remaining activity at 10 µM (FGFR4),remaining activity at 1 µM (BTK),remaining activity at 10 µM (BTK),"IC50 (EGFR; dose response, read-out: EGFR Inhibition IC50)",IC50 (FGFR4),"IC50 (BTK; dose response, read-out: BTK Inhibition IC50)",IC50 (BMX; dose response),Compound
50 to 90%,50 to 90%,< 50%,< 50%,< 50%,< 50%,< 50%,< 50%,50 to 90%,> 90%,< 50%,< 50%,,,,,"CN(C)S(=O)(=O)c1c(F)c(F)c(F)c(F)c1C(=O)N1CC(n2nc(-c3ccc(Oc4ccccc4)cc3)c3c(N)ncnc32)C1 [Compound I-29, 2-(3-(4-amino-3-(4-phenoxyphenyl)-1H-pyrazolo[3,4-d]pyrimidin-1-yl)azetidine-1-carbonyl)-3,4,5,6-tetrafluoro-N,N-dimethylbenzenesulfonamide]"
50 to 90%,> 90%,> 90%,50 to 90%,> 90%,50 to 90%,50 to 90%,< 50%,< 50%,< 50%,< 50%,< 50%,,< 1 µM,,,"CN(CCn1nc(-c2ccc(Oc3ccccc3)cc2)c2c(N)ncnc21)C(=O)c1c(F)c(F)c(F)c(F)c1S(=O)(=O)N(C)C [Compound I-30, N-(2-(4-amino-3-(4-phenoxyphenyl)-1H-pyrazolo[3,4-d]pyrimidin-1-yl)ethyl)-2-(N,N-dimethylsulfamoyl)-3,4,5,6-tetrafluoro-N-methylbenzamide]"
50 to 90%,> 90%,> 90%,< 50%,< 50%,< 50%,< 50%,< 50%,< 50%,< 50%,< 50%,< 50%,,< 1 µM,,< 1 µM,"CN(CCn1nc(-c2ccc(Oc3ccccc3)cc2)c2c(N)ncnc21)C(=O)c1c(F)c(F)c(F)c(F)c1S(C)(=O)=O [Compound I-28, N-(2-(4-amino-3-(4-phenoxyphenyl)-1H-pyrazolo[3,4-d]pyrimidin-1-yl)ethyl)-2,3,4,5-tetrafluoro-N-methyl-6-(methylsulfonyl)benzamide]"
,,> 90%,< 50%,> 90%,< 50%,< 50%,< 50%,> 90%,< 50%,< 50%,< 50%,,,,,"CS(=O)(=O)c1c(F)c(F)c(F)c(F)c1CNCCn1nc(-c2ccc(Oc3ccccc3)cc2)c2c(N)ncnc21 [Compound I-44, 3-(4-phenoxyphenyl)-1-(2-((2,3,4,5-tetrafluoro-6-(methylsulfonyl)benzyl)amino)ethyl)-1H-pyrazolo[3,4-d]pyrimidin-4-amine]"
,,> 90%,> 90%,> 90%,50 to 90%,50 to 90%,> 90%,> 90%,> 90%,> 90%,> 90%,,,,,"CN(CCn1nc(-c2ccc(Oc3ccccc3)cc2)c2c(N)ncnc21)c1c(F)c(F)c(F)c(F)c1S(C)(=O)=O [Compound I-43, 1-(2-(methyl(2,3,4,5-tetrafluoro-6-(methylsulfonyl)phenyl)amino)ethyl)-3-(4-phenoxyphenyl)-1H-pyrazolo[3,4-d]pyrimidin-4-amine]"

# — US20240018153A1, “BENZENESULFONAMIDE DERIVATIVES AND USES THEREOF” (2692372 ONTARIO, INC., priority 2020, published 2024)
